The record followed here is patent US12139487B2, “Compounds and uses thereof” (Foghorn Therapeutics Inc., priority 2022, dated 2024).

One assay concerns the target T1, BRM (Homo sapiens, UniProt P51531).
T1 construct: made in house; host or cells: High Five insect cells
The experiment in a line: ATPase catalytic activity assay (ADP-Glo), BRM. The conditions noted are these: Table 10; for Ratio (BRG1 IC50 (μM) divided by BRM IC50 (μM)): ATPase assay, selectivity BRG1/BRM; for IC50: ATPase catalytic activity assay (ADP-Glo). In kind it is biochemical. In short, it runs like this: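 Reaction holds 30 nM BRM, 20 nM salmon sperm DNA and 400 μM ATP in 20 mM Tris pH 8, 20 mM MgCl2, 50 mM NaCl, 0.1% Tween-20, 1 mM DTT. Incubated 1 h at room temperature. ADP formed is detected by ADP-Glo luminescence.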

In another assay the target is T2, BRG-1 (Homo sapiens, UniProt P51532).
T2 construct: made in house; host or cells: High Five insect cells
The assay is described as follows: ATPase catalytic activity assay (ADP-Glo), BRG-1. Format: biochemical. The conditions noted are these: Table 10, read-out: BRG1 IC50. In short, it runs like this:
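Biochemical ADP-Glo assay, BRG-1. Post-reaction: ATP depletion reagent, 40 min RT; ADP→ATP conversion/detection reagent, 60 min RT; luminescence read on plate luminometer.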

T2 sequence (P51532 whole entry): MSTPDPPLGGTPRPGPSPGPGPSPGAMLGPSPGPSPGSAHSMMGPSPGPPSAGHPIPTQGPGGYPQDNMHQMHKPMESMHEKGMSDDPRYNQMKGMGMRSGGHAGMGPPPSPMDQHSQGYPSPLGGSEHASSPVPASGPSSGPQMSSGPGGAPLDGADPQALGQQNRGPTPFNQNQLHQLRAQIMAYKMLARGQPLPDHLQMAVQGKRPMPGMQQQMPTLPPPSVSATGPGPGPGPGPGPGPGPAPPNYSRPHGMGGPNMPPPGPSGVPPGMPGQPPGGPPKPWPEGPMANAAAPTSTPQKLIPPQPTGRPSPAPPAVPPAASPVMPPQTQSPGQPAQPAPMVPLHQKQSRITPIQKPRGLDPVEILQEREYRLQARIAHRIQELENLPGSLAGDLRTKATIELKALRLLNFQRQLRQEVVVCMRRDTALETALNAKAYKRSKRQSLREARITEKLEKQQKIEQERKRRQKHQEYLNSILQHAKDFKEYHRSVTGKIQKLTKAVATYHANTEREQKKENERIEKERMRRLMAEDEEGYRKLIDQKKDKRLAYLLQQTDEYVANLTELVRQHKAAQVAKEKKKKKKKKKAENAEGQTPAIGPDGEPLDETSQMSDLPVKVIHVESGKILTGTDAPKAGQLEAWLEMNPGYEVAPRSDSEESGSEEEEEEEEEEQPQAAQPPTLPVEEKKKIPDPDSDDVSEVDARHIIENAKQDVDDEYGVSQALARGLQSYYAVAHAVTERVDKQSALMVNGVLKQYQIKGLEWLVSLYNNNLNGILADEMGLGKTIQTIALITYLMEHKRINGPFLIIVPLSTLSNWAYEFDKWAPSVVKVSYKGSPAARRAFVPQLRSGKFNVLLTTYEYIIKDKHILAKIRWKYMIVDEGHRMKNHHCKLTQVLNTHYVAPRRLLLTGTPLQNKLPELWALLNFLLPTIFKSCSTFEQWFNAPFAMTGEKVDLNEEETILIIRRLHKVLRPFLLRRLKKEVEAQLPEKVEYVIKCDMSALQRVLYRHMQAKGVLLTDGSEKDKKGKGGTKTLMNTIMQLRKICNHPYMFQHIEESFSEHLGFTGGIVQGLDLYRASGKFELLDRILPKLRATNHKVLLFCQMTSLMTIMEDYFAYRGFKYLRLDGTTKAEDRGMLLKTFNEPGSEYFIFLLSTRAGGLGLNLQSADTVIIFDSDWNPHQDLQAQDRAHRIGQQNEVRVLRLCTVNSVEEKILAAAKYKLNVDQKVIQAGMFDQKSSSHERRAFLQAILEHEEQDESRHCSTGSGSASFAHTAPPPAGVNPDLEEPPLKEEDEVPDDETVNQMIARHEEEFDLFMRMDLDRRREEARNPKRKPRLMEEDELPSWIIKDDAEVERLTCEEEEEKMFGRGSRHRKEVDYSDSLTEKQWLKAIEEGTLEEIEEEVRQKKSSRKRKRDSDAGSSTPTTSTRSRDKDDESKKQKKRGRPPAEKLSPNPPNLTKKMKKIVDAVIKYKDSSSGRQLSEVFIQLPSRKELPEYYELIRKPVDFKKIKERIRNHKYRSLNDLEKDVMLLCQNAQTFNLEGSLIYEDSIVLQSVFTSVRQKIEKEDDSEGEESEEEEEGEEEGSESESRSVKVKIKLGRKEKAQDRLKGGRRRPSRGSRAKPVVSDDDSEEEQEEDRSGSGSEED
T1 sequence (P51531 whole entry): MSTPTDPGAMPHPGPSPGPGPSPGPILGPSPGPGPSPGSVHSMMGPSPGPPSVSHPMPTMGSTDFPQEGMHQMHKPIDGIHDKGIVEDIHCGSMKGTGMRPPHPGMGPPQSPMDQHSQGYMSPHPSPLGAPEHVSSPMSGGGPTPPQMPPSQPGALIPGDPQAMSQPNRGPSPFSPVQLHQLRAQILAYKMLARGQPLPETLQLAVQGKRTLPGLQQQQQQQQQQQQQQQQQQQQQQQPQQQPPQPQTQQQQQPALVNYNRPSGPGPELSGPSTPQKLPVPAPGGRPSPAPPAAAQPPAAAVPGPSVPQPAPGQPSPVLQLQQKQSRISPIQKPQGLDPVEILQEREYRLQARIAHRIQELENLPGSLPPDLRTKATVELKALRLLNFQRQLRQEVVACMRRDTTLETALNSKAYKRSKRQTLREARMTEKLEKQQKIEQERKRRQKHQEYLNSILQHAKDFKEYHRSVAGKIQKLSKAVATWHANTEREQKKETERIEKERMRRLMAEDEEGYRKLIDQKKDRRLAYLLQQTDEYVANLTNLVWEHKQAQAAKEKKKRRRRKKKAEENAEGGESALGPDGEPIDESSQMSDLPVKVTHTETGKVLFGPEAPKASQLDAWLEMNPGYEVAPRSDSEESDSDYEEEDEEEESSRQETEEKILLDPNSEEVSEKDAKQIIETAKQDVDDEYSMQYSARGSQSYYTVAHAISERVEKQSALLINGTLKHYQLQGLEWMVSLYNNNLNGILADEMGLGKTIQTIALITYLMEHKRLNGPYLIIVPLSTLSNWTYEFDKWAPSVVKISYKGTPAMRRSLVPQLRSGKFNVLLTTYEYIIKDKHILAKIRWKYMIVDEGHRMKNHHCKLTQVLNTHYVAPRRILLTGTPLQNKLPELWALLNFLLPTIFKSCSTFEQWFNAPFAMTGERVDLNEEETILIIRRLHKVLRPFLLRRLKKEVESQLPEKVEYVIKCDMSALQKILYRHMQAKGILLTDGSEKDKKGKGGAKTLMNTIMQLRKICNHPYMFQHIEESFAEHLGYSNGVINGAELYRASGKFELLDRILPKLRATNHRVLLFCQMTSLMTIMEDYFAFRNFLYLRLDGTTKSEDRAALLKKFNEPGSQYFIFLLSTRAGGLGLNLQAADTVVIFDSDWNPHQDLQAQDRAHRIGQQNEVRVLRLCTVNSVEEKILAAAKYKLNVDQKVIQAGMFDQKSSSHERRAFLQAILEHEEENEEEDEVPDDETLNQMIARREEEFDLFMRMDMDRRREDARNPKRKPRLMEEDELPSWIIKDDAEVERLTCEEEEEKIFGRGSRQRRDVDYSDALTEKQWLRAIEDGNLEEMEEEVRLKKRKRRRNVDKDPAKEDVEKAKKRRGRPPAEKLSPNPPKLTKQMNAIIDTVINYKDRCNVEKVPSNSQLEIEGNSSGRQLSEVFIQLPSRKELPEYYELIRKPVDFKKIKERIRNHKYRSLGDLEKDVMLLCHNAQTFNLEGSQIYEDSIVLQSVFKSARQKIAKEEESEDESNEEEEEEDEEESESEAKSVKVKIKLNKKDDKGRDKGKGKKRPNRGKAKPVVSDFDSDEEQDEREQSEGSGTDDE

As for `O=C(NCc1cc2nc(N3CCOc4cc(N5CCC5)cnc43)ccc2cn1)c1cc(F)c2c(c1)S(=O)(=O)[C@@H](F)COC2` [Compound 48], on BRM, the “Ratio (BRG1 IC50 (μM) divided by BRM IC50 (μM))” value was determined as 13.42 and inhibition was half-maximal at 2.3 nM (IC50). Besides, the IC50 at BRG-1 worked out at 34.1 nM.
Turning to `C[C@@H]1CN(c2cccc(-c3ccc4cnc(CNC(=O)c5cc(F)c6c(c5)S(=O)(=O)[C@@H](F)CO[C@@H]6C)cc4n3)n2)C[C@H](C)O1` [Compound 134], the “Ratio (BRG1 IC50 (μM) divided by BRM IC50 (μM))” value at BRM is on record as 20.63. Moreover, the concentration for half-maximal inhibition (IC50) against BRM was 4.6 nM; at BRG-1, 98.6 nM.
The matching figures for `CCOc1nc(C(F)F)ccc1-c1ccc2cnc(CNC(=O)c3cc(F)c4c(c3)S(=O)(=O)[C@@H](F)COC4)cc2n1` [Compound 29]: 22.36, 1.8 nM and 35 nM.
The matching figures for `O=C(NCc1cc2nc(-c3ccnc(N4CCCC4)n3)ccc2cn1)c1cc(F)c2c(c1)S(=O)(=O)[C@@H](F)CCO2` [Compound 188]: 20.95, 5.8 nM and 132 nM.
The matching figures for `Cc1cc(C(=O)NCc2cc3nc(-c4cccc(N5C[C@@H](C)O[C@@H](C)C5)n4)ccc3cn2)cc2c1OCC[C@H](F)S2(=O)=O` [Compound 100]: 13.01, 3.5 nM and 44.8 nM.
Consider `[2H]C1([2H])OC([2H])([2H])[C@H](F)S(=O)(=O)c2cc(C(=O)NCc3cc4nc(-c5ccc(C(F)F)nc5OC)ccc4cn3)cc(F)c21` [Compound 23], for which the IC50 is 1.6 nM against BRM and 37.9 nM at BRG-1.
Turning to `O=C(NCc1cc2nc(N3CCOc4ccc([C@@H]5C[C@H]5F)nc43)ccc2cn1)c1cc(F)c2c(c1)S(=O)(=O)[C@@H](F)COC2` [Compound 207], at BRM, the “Ratio (BRG1 IC50 (μM) divided by BRM IC50 (μM))” value came to 18.77 and half-maximal inhibition (IC50) was put at 6.2 nM. At BRG-1, the IC50 is 113 nM.
Taken in the same sequence, the figures for `C[C@H](F)c1cnc2c(c1)OCCN2c1ccc2cnc(CNC(=O)c3cc(F)c4c(c3)S(=O)(=O)[C@@H](F)CCO4)cc2n1` [Compound 198] were 17.01, 6 nM and 103 nM.
The matching figures for `[2H]C1([2H])Oc2c(F)cc(C(=O)NCc3cc4nc(N5CCOc6ccc(C(F)F)nc65)ccc4cn3)cc2S(=O)(=O)[C@@]([2H])(F)C1([2H])[2H]` [Compound 203]: 14.89, 6.1 nM and 92 nM.
Taken in the same sequence, the figures for `CCOCc1cnc2c(c1)OCCN2c1ccc2cnc(CNC(=O)c3cc(F)c4c(c3)S(=O)(=O)[C@@H](F)CCO4)cc2n1` [Compound 154] were 15.21, 5 nM and 68 nM.
Take `COc1nc([C@@H](F)CF)ccc1-c1ccc2cnc(CNC(=O)c3cc(F)c4c(c3)S(=O)(=O)[C@@H](F)COC4)cc2n1` [Compound 46]: on BRM, the “Ratio (BRG1 IC50 (μM) divided by BRM IC50 (μM))” value worked out at 20.83 and the half-maximal inhibitory concentration (IC50) worked out at 2.3 nM. For the same compound, the IC50 on BRG-1 is 47.7 nM.
The matching figures for `COc1nc([C@H](F)C(F)F)ccc1-c1ccc2cnc(CNC(=O)c3cc(F)c4c(c3)S(=O)(=O)[C@@H](F)CCO4)cc2n1` [Compound 287]: 11.77, 9.6 nM and 113 nM.
Turning to `CCOc1ccnc2c1OCCN2c1ccc2cnc(CNC(=O)c3cc(Cl)c4c(c3)S(=O)(=O)[C@@H](F)COC4)cc2n1` [Compound 27], on BRM, the “Ratio (BRG1 IC50 (μM) divided by BRM IC50 (μM))” value is 11.52 and the IC50 came to 1.8 nM. Further, the IC50 on BRG-1 stood at 19.5 nM.
The matching figures for `C[C@@H]1CN(c2cccc(-c3ccc4cnc(CNC(=O)c5cc(Cl)c6c(c5)S(=O)(=O)[C@@H](F)COC6)cc4n3)n2)C[C@H](C)O1` [Compound 79]: 12.12, 3 nM and 34.4 nM.
The matching figures for `Cc1cc(C(=O)NCc2cc3nc(N4CCOc5cc(N6CC[C@H]6C)cnc54)ccc3cn2)cc2c1OCC[C@H](F)S2(=O)=O` [Compound 160]: 17.82, 5.1 nM and 76 nM.
Taken in the same sequence, the figures for `O=C(NCc1cc2nc(N3CCOc4ccc(N5CC(F)C5)nc43)ccc2cn1)c1cc(F)c2c(c1)S(=O)(=O)[C@@H](F)CCO2` [Compound 246] were 23.74, 7.8 nM and 217 nM.
As for `C[C@@H]1CN(c2cccc(-c3ccc4cnc(CNC(=O)c5cc(Br)c6c(c5)S(=O)(=O)[C@@H](F)CCO6)cc4n3)n2)C[C@H](C)O1` [Compound 255], the “Ratio (BRG1 IC50 (μM) divided by BRM IC50 (μM))” value on BRM worked out at 23.96. The figures for the IC50 at BRM and on BRG-1 were 8.1 nM and 207 nM, respectively.
As for `O=C(NCc1cc2nc(N3CCOc4cc([C@H]5CC5(F)F)cnc43)ccc2cn1)c1cc(F)c2c(c1)S(=O)(=O)[C@@H](F)CCO2` [Compound 166], on BRM, the “Ratio (BRG1 IC50 (μM) divided by BRM IC50 (μM))” value came to 15.93 and the IC50 stood at 5.3 nM. Also, the 50% inhibitory concentration (IC50) at BRG-1 is 83.8 nM.
In the case of `COc1cc(F)ccc1-c1ccc2cnc(CNC(=O)c3cc(F)c4c(c3)S(=O)(=O)[C@@H](F)CCO4)cc2n1` [Compound 266], on BRM, the “Ratio (BRG1 IC50 (μM) divided by BRM IC50 (μM))” value is 18.84 and the IC50 was 8.7 nM. Also, at BRG-1, the IC50 was found to be 154 nM.
The matching figures for `O=C(NCc1cc2nc(N3CCCc4c3ncc(F)c4OC3CC3)ccc2cn1)c1cc(F)c2c(c1)S(=O)(=O)[C@@H](F)CCO2` [Compound 15]: 11.06, 1.5 nM and 16.6 nM.
Take `COc1nc(CC(F)F)ccc1-c1ccc2cnc(CNC(=O)c3cc(F)c4c(c3)S(=O)(=O)[C@@H](F)CCO4)cc2n1` [Compound 292]: at BRM, the “Ratio (BRG1 IC50 (μM) divided by BRM IC50 (μM))” value is on record as 23.12 and the concentration for half-maximal inhibition (IC50) was found to be 9.8 nM. Further, the 50% inhibitory concentration (IC50) at BRG-1 is 226 nM.
The matching figures for `O=C(NCc1cc2nc(-c3ccnc([C@H]4CC4(F)F)n3)ccc2cn1)c1cc(F)c2c(c1)S(=O)(=O)[C@@H](F)CCO2` [Compound 195]: 24.88, 5.9 nM and 168 nM.
The matching figures for `CCOc1cnc2c(c1)OCCN2c1ccc2cnc(CNC(=O)c3cc(F)c4c(c3)S(=O)(=O)[C@@H](F)CCO4)cc2n1` [Compound 247]: 13.39, 7.8 nM and 98.5 nM.
The matching figures for `COc1nc([C@H](F)CF)ccc1-c1ccc2cnc(CNC(=O)c3cc(F)c4c(c3)S(=O)(=O)[C@@H](F)COC4)cc2n1` [Compound 44]: 23.96, 2.1 nM and 64.1 nM.
With `CC(F)(F)c1cnc2c(c1)OCCN2c1ccc2cnc(CNC(=O)c3cc(F)c4c(c3)S(=O)(=O)[C@@H](F)CCO4)cc2n1` [Compound 176], on BRM, the “Ratio (BRG1 IC50 (μM) divided by BRM IC50 (μM))” value turned out to be 17.02 and the IC50 worked out at 5.6 nM. Moreover, the IC50 at BRG-1 amounted to 123 nM.
Taken in the same sequence, the figures for `O=C(NCc1cc2nc(N3CCOc4cc(C(F)F)cnc43)ccc2cn1)c1cc(F)c2c(c1)S(=O)(=O)[C@@H](F)CCO2` [Compound 159] were 14.72, 5.1 nM and 100 nM.
The matching figures for `CCO[C@@H]1CCN(c2cccc(-c3ccc4cnc(CNC(=O)c5cc(F)c6c(c5)S(=O)(=O)[C@@H](F)COC6)cc4n3)n2)C1` [Compound 12]: 11.63, 1.4 nM and 16.2 nM.
The matching figures for `O=C(NCc1cc2nc(N3CCOc4ccc(C5CC5)nc43)ccc2cn1)c1ccc2c(c1)S(=O)(=O)[C@@H](F)CCO2` [Compound 96]: 22.86, 3.4 nM and 86.4 nM.
In the case of `COCCN(C)c1cnc2c(c1)CCCN2c1ccc2cnc(CNC(=O)c3cc(F)c4c(c3)S(=O)(=O)[C@@H](F)CCO4)cc2n1` [Compound 149], the “Ratio (BRG1 IC50 (μM) divided by BRM IC50 (μM))” value on BRM is given as 13.78. Moreover, the values for the IC50 against BRM and on BRG-1 were 4.9 nM and 67.7 nM, respectively.
`CC#Cc1cnc2c(c1)OCCN2c1ccc2cnc(CNC(=O)c3cc(F)c4c(c3)S(=O)(=O)[C@@H](F)COC4)cc2n1` [Compound 239]: at BRM, the “Ratio (BRG1 IC50 (μM) divided by BRM IC50 (μM))” value amounted to 12.22 and the IC50 came to 7.6 nM. The concentration for half-maximal inhibition (IC50) on BRG-1 came out at 93.2 nM.
For `O=C(NCc1cc2nc(N3CCOc4cc(N5CCC5)cnc43)ccc2cn1)c1cc(F)c2c(c1)S(=O)(=O)[C@@H](F)CCO2` [Compound 190], at BRM, the “Ratio (BRG1 IC50 (μM) divided by BRM IC50 (μM))” value came to 20.33 and it took 5.8 nM to reach half-maximal inhibition (IC50). For the same compound, the IC50 at BRG-1 was 127 nM.
For the compound `C[C@@H]1CCN1c1cnc2c(c1)OCCN2c1ccc2cnc(CNC(=O)c3cc(Cl)c4c(c3)S(=O)(=O)[C@@H](F)CCO4)cc2n1` [Compound 165], at BRM, the “Ratio (BRG1 IC50 (μM) divided by BRM IC50 (μM))” value stood at 22.18 and the half-maximal inhibitory concentration (IC50) is 5.3 nM. Moreover, the IC50 on BRG-1 stood at 143 nM.
Taken in the same sequence, the figures for `COc1nc(C(C)(F)F)ccc1-c1ccc2cnc(CNC(=O)c3cc(F)c4c(c3)S(=O)(=O)[C@@H](F)COC4)cc2n1` [Compound 75] were 26.00, 2.8 nM and 80.1 nM.
Taken in the same sequence, the figures for `O=C(NCc1cc2nc(-c3cccc([C@H]4CC4(F)F)n3)ccc2cn1)c1cc(F)c2c(c1)S(=O)(=O)[C@@H](F)CCO2` [Compound 250] were 26.90, 8 nM and 220 nM.
